Values quoted from earlier work, collected in patent publication US9597377B2, “Stable formulations of purified proteins” (MOUNT SINAI SCHOOL OF MEDICINE OF NEW YORK UNIVERSITY, priority 2003, dated 2017).
Positions count from the first letter of the chain named.

What was measured:
mutant (R301Q) α-Gal A = target: T1, mutant (R301Q) α-Gal A (Homo sapiens, UniProt P06280, R301Q); details: oral administration, transgenic mice overexpressing mutant (R301Q) α-Gal A; cited from earlier work
T1 construct: host or cells: transgenic mice overexpressing the mutant enzyme; activity measured in major organs
T1 sequence (P06280 32-429 R301Q): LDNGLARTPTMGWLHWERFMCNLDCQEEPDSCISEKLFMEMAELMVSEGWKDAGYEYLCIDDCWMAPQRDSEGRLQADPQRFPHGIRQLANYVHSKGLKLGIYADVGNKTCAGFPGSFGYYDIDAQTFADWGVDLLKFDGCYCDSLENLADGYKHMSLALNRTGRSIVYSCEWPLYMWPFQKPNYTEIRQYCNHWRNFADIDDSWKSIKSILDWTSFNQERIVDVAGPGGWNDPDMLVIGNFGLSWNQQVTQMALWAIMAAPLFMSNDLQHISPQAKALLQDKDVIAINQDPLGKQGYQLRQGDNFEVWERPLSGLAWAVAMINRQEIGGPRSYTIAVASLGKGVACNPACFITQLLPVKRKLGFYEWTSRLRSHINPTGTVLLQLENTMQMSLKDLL

[1] = test system: lymphoblasts established from Fabry patients with R301Q or Q279E mutations; details: cited from earlier work
mutant α-Gal A (R301Q) = target: T2, mutant α-Gal A (R301Q) (Homo sapiens, UniProt P06280, R301Q); details: neutral pH; cited from earlier work
T2 sequence (P06280 32-429 R301Q): T1 sequence (P06280 32-429 R301Q)

[2] = target: T3, wild-type α-Gal A in COS-7 cells (Homo sapiens, UniProt P06280); details: COS-7 cells transfected with vector coding wild-type α-Gal A; cited from earlier work
T3 construct: expressed in transfected cells; host or cells: COS-7 cells
T3 sequence (P06280 32-429): T1 sequence (P06280 32-429 R301Q) with Q270R

## OC[C@H]1NC[C@H](O)[C@@H](O)[C@H]1O [DGJ, 1-deoxygalactonojirimycin]
Mutant (R301Q) α-Gal A
  enzyme activity in major organs: substantially elevated the enzyme activity
[1]
  mutant enzyme activity in lymphoblasts: enhanced the mutant enzyme activity
Mutant α-Gal A (R301Q)
  in vitro stability of mutant α-Gal A (R301Q): effectively increased in vitro stability
[2]
  amount and activity of wild-type α-Gal A: increase the amount and activity
